# Measurements taken from article PMC4939156, “Study of a mechanism responsible for potential antidepressant activity of EMD 386088, a 5-HT6 partial agonist in rats” (Naunyn-Schmiedeberg's Archives of Pharmacology, 2016).
# Structures can show the parent of a compound that is named as a salt.
# Biological target: T1, dopamine transporter (DAT) (Homo sapiens, UniProt Q01959)
# T1 construct: gene SLC6A3; human recombinant, CHO cells
# Test: Cerep DAT affinity assay, human recombinant CHO cells (called radioligand in the Discussion, functional in Methods)
# Assay type: binding
# T1 sequence (Q01959 whole entry): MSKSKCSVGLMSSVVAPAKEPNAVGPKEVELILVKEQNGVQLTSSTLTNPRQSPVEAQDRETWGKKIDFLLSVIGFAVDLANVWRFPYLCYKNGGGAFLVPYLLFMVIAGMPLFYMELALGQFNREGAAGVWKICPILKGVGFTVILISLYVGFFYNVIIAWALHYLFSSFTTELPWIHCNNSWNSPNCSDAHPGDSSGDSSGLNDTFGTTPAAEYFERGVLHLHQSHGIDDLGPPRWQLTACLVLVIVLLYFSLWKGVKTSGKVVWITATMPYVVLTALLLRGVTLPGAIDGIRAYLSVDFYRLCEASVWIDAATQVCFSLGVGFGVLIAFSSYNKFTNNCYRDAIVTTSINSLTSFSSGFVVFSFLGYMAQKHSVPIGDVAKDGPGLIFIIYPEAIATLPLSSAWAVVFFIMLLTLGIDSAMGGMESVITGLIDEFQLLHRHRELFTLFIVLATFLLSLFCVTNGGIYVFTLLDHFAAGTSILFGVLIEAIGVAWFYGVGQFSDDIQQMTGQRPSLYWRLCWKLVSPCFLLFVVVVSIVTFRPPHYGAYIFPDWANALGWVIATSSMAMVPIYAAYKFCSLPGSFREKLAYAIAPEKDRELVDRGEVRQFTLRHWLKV
structure (smiles),measurement,value
"Cc1[nH]c2ccc(Cl)cc2c1C1=CCNCC1 [EMD 386088, 5-chloro-2-methyl-3-(1,2,3,6-tetrahydro-4-pyridinyl)-1H-indole hydrochloride]",Ki,41 nM
